Experimental data published in PubChem BioAssay AID192 (DTP/NCI, 2004).
Several values for one entry are separate records, joined by “and”; a condition that tells them apart may be missing. Equal entries are not always repeated. Inconclusive results and toxic doses are left out. How the source made its calls: active means survival T/C of 150% or more; inactive means T/C below 125% in these data.

Tested on: BDF1 mice, B16 melanoma ip, median survival T/C
Test: NCI In Vivo Anticancer Drug Screen. Data for tumor model B16 Melanoma (intraperitoneal) in B6D2F1 (BDF1) mice
Conditions: endpoint: median survival time, higher = longer survival
Outline: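 The ratio T/C compares compound-treated mice with vehicle-treated controls, using survival or tumor size as the endpoint in a transplantable tumor model.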

[1] = dose: 25.0 mg/kg/injection, schedule: Q01DX009 (ip), vehicle: water
[2] = dose: 50.0 mg/kg/injection, schedule: Q01DX009 (ip), vehicle: water
[3] = dose: 100.0 mg/kg/injection, schedule: Q01DX009 (ip), vehicle: water
[4] = dose: 12.5 mg/kg/injection, schedule: Q01DX009 (ip), vehicle: saline
[5] = dose: 100.0 mg/kg/injection, schedule: Q01DX009 (ip), vehicle: Klucel (hydroxypropylcellulose) (HPC)
[6] = dose: 200.0 mg/kg/injection, schedule: Q01DX009 (ip), vehicle: Klucel (hydroxypropylcellulose) (HPC)
[7] = dose: 400.0 mg/kg/injection, schedule: Q01DX009 (ip), vehicle: Klucel (hydroxypropylcellulose) (HPC)
[8] = dose: 100.0 mg/kg/injection, schedule: Q01DX009 (ip), vehicle: saline with Tween-80
[9] = dose: 200.0 mg/kg/injection, schedule: Q01DX009 (ip), vehicle: saline with Tween-80

Measured: T/C

CC(=O)Oc1ccc(N2C(=O)C3C(C2=O)C2c4ccccc4C3C3CCCCN32)cc1 (stereo not drawn) (tested in a mixture with another compound)
inactive: dose: 12.5 mg/kg/injection, schedule: Q01DX009 (ip), vehicle: water 103 % of control | [1] 97 % of control | [2] 104 % of control | [3] 97 % of control

CC(O)c1ccc[n+](CCc2cn(C)c3ccccc23)c1 (stereo not drawn)
inactive: dose: 6.25 mg/kg/injection, schedule: Q01DX009 (ip), vehicle: saline 107 % of control | [4] 113 % of control | dose: 25.0 mg/kg/injection, schedule: Q01DX009 (ip), vehicle: saline 104 % of control

CCOC(=O)C(C(=O)COC)C(=O)OCC
inactive: [1] 102 % of control | [2] 98 % of control | [3] 93 % of control

ClCCN(CCCl)CCN1c2ccccc2Sc2ccccc21
inactive: dose: 1.56 mg/kg/injection, schedule: Q01DX009 (ip), vehicle: saline with Tween-80 105 % of control and 122 % of control | dose: 3.12 mg/kg/injection, schedule: Q04DX003 (ip), vehicle: Klucel (hydroxypropylcellulose) (HPC) 107 % of control | dose: 6.25 mg/kg/injection, schedule: Q01DX009 (ip), vehicle: saline with Tween-80 123 % of control | dose: 6.25 mg/kg/injection, schedule: Q04DX003 (ip), vehicle: Klucel (hydroxypropylcellulose) (HPC) 115 % of control

COc1ccc(-c2c(CC(=O)O)c3cc(OC)ccc3n2Cc2ccc(Cl)cc2)cc1
inactive: [5] 95 % of control | dose: 100.0 mg/kg/injection, schedule: Q04DX003 (ip), vehicle: saline with Tween-80 100 % of control | [6] 94 % of control | dose: 200.0 mg/kg/injection, schedule: Q04DX003 (ip), vehicle: saline with Tween-80 95 % of control | [7] 95 % of control | dose: 400.0 mg/kg/injection, schedule: Q04DX003 (ip), vehicle: saline with Tween-80 95 % of control

S=C(Nc1ccccn1)Nc1ccccn1
inactive: dose: 25.0 mg/kg/injection, schedule: Q01DX009 (ip), vehicle: Klucel (hydroxypropylcellulose) (HPC) 97 % of control | dose: 50.0 mg/kg/injection, schedule: Q01DX009 (ip), vehicle: Klucel (hydroxypropylcellulose) (HPC) 104 % of control | [5] 111 % of control

CNNC(=O)NC
inactive: dose: 1.56 mg/kg/injection, schedule: Q01DX009 (ip), vehicle: saline 87 % of control | dose: 3.12 mg/kg/injection, schedule: Q01DX009 (ip), vehicle: saline 95 % of control | [4] 100 % of control

OCC1OCCO1
inactive: [8] 96 % of control | [9] 93 % of control

COc1cccc(C(=O)C(CCC#N)c2ccccc2)c1 (stereo not drawn)
inactive: [5] 103 % of control | [6] 96 % of control | [7] 103 % of control

O=C(O)CCCSc1nc2ccccc2s1
inactive: [8] 100 % of control | [9] 95 % of control
